Results taken from ChEMBL document CHEMBL3797203, “Plasmin inhibitors with hydrophobic amino acid-based linker between hydantoin moiety and benzimidazole scaffold enhance inhibitory activity” (Bioorg Med Chem Lett, 2016).

Tests used:
Plasminogen = Plasminogen (Homo sapiens, UniProt P00747); experiment: Inhibition of human plasmin using Boc-Val-Leu-Lys-MCA as substrate by fluorescence assay
[1] = target: Urokinase-type plasminogen activator (Homo sapiens, UniProt P00749); experiment: Inhibition of human urokinase using Pyr-Gly-Arg-MCA as substrate by fluorescence assay
Homo sapiens = species on record: Homo sapiens; experiment: Selectivity ratio of IC50 for human urokinase to IC50 for human plasmin

Sequence of Plasminogen (P00747 97-580 limits assumed): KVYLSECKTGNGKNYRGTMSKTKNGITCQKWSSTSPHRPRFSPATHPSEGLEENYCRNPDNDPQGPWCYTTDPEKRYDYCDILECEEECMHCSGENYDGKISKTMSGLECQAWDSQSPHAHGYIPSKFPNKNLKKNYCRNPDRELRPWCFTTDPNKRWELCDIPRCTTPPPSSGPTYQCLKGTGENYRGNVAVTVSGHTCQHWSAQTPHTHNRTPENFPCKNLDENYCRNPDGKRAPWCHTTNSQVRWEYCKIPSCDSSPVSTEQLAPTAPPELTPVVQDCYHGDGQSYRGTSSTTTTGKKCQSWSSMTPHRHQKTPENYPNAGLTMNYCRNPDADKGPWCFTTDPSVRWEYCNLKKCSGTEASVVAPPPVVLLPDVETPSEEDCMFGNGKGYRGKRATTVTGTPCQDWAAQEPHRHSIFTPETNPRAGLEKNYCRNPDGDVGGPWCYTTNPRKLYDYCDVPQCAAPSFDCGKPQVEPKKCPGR
Sequence of Plasminogen (P00747 581-810 limits assumed): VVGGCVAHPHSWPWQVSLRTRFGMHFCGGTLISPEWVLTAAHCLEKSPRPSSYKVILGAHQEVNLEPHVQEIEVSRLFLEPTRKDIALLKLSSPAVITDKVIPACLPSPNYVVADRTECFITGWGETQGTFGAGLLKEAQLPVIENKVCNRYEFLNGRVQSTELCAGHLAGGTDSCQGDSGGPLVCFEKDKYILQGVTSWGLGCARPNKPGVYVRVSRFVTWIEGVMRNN

| IC50 (Plasminogen) [µM] | IC50 [1] [µM] | Ratio IC50 (Homo sapiens) | SMILES |
| --- | --- | --- | --- |
| 11 | > 200 | – | C[C@@H](c1nc2ccc(C(=O)N[C@H](C#N)CCCCN)cc2n1C)N1C(=O)CN(c2ccc(Oc3ccccc3)cc2)C1=O |
| 6.7 | > 200 | – | CC[C@@H](C)[C@H](c1nc2ccc(C(=O)N[C@H](C#N)CCCCN)cc2n1C)N1C(=O)CN(c2ccc(Oc3ccccc3)cc2)C1=O |
| 28 | > 200 | – | CC(C)[C@@H](c1nc2ccc(C(=O)N[C@H](C#N)CCCCN)cc2n1C)N1C(=O)CN(c2ccc(Oc3ccccc3)cc2)C1=O |
| 4.9 | > 200 | 40 | CC(C)[C@H](c1nc2ccc(C(=O)N[C@H](C#N)CCCCN)cc2n1C)N1C(=O)CN(c2ccc(Oc3ccccc3)cc2)C1=O |

Second part, the compound before the results:

| SMILES | IC50 (Plasminogen) [µM] | IC50 [1] [µM] | Ratio IC50 (Homo sapiens) |
| --- | --- | --- | --- |
| C[C@H](c1nc2ccc(C(=O)N[C@H](C#N)CCCCN)cc2n1C)N1C(=O)CN(c2ccc(F)cc2)C1=O | 45 | > 200 | – |
| Cn1c(CN2C(=O)CN(c3ccc(F)cc3)C2=O)nc2ccc(C(=O)N[C@H](C#N)CCCCN)cc21 | – | > 200 | – |
| C[C@H](c1nc2ccc(C(=O)N[C@H](C#N)CCCCN)cc2n1C)N1C(=O)CN(c2ccc(Oc3ccccc3)cc2)C1=O | 19 | 160 | – |
| C[C@@H](c1nc2ccc(C(=O)N[C@H](C#N)CCCCN)cc2n1C)N1C(=O)CN(c2ccc(Oc3ccncc3)cc2)C1=O | 19 | > 200 | – |
| CC(C)C[C@H](c1nc2ccc(C(=O)N[C@H](C#N)CCCCN)cc2n1C)N1C(=O)CN(c2ccc(Oc3ccccc3)cc2)C1=O | 7.7 | 150 | – |
| C[C@@H](c1nc2ccc(C(=O)N[C@H](C#N)CCCCN)cc2n1C)N1C(=O)CN(c2ccc(F)cc2)C1=O | 25 | > 200 | – |
| C[C@H](c1nc2ccc(C(=O)N[C@H](C#N)CCCCN)cc2n1C)N1C(=O)CN(c2ccc(Oc3ccncc3)cc2)C1=O | 12 | > 200 | – |
